In ChEMBL document CHEMBL1201862, “PubChem BioAssay data set” (2004):
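96-well plates; 48 h exposure; 5 concentrations. Endpoints by linear interpolation between flanking doses. Not reached: highest tested concentration assigned. GI50: concentration for 50% inhibition of growth.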 Calls of active or inactive are those of the source. Rule as the data show it: active = GI50 up to about 1.1 µM and inactive = higher.

Assays:
Experiment in all cases: NCI anticancer screen, dose series, 48 h
SNB-19 = tested on: SNB-19
EKVX = tested on: EKVX
XF498 = tested on: XF498
SR = tested on: SR
HCT-15 = tested on: HCT-15
SK-MEL-2 = tested on: SK-MEL-2
HOP-18 = tested on: HOP-18
HL-60 = tested on: HL-60
OVCAR-5 = tested on: OVCAR-5
KM12 = tested on: KM12
NCI-H460 = tested on: NCI-H460
SF-268 = tested on: SF-268
RPMI-8226 = tested on: RPMI-8226
DMS-273 = tested on: DMS-273
OVCAR-4 = tested on: OVCAR-4
HT-29 = tested on: HT-29
U-251 = tested on: U-251
RXF 393 = tested on: RXF 393
SW-620 = tested on: SW-620
A549 = tested on: A549
SK-MEL-5 = tested on: SK-MEL-5
NCI-H23 = tested on: NCI-H23
HCC 2998 = tested on: HCC 2998
A498 = tested on: A498
UACC-257 = tested on: UACC-257
CAKI-1 = tested on: CAKI-1
Malme-3M = tested on: Malme-3M
K562 = tested on: K562
SNB-75 = tested on: SNB-75
TK-10 = tested on: TK-10
UO-31 = tested on: UO-31
786-0 = tested on: 786-0
CCRF-CEM = tested on: CCRF-CEM
OVCAR-3 = tested on: OVCAR-3
SN12C = tested on: SN12C
M14 = tested on: M14
MOLT-4 = tested on: MOLT-4
HCT-116 = tested on: HCT-116
DMS-114 = tested on: DMS-114
ACHN = tested on: ACHN
HOP-62 = tested on: HOP-62
SF-539 = tested on: SF-539
LXFL 529 = tested on: LXFL 529
LOX IMVI = tested on: LOX IMVI
KM-20L2 = tested on: KM-20L2
SK-OV-3 = tested on: SK-OV-3
M19-MEL = tested on: M19-MEL
SNB-78 = tested on: SNB-78
COLO 205 = tested on: COLO 205
HOP-92 = tested on: HOP-92
DLD-1 = tested on: DLD-1
IGROV-1 = tested on: IGROV-1
OVCAR-8 = tested on: OVCAR-8
SK-MEL-28 = tested on: SK-MEL-28
UACC-62 = tested on: UACC-62
SF-295 = tested on: SF-295
NCI-H522 = tested on: NCI-H522
NCI-H226 = tested on: NCI-H226
RXF 631 = tested on: RXF 631

Measured: GI50

CN(C)CN(C)c1nc(N(C)C)nc(N(C)C)n1
> 100 µM: HCT-15
inactive: SNB-19 > 100 µM | EKVX > 100 µM | XF498 > 100 µM | SR > 100 µM | SK-MEL-2 > 100 µM | HOP-18 > 100 µM | HL-60 > 100 µM | OVCAR-5 > 100 µM | KM12 > 100 µM | NCI-H460 > 100 µM | SF-268 > 100 µM | RPMI-8226 > 100 µM | DMS-273 > 100 µM | OVCAR-4 > 100 µM | HT-29 > 100 µM | U-251 > 100 µM | RXF 393 61.1 µM | SW-620 > 100 µM | A549 > 100 µM | SK-MEL-5 > 100 µM | NCI-H23 > 100 µM | HCC 2998 > 100 µM | A498 > 100 µM | UACC-257 > 100 µM | CAKI-1 > 100 µM | Malme-3M > 100 µM | K562 > 100 µM | SNB-75 > 100 µM | TK-10 > 100 µM | UO-31 > 100 µM | 786-0 > 100 µM | CCRF-CEM > 100 µM | OVCAR-3 > 100 µM | SN12C > 100 µM | M14 > 100 µM | MOLT-4 > 100 µM | HCT-116 > 100 µM | DMS-114 90.2 µM | ACHN > 100 µM | HOP-62 > 100 µM | SF-539 > 100 µM | LXFL 529 84.7 µM | LOX IMVI > 100 µM | KM-20L2 > 100 µM | SK-OV-3 > 100 µM | M19-MEL > 100 µM | SNB-78 > 100 µM | COLO 205 > 100 µM | HOP-92 > 100 µM | DLD-1 > 100 µM | IGROV-1 > 100 µM | OVCAR-8 > 100 µM | SK-MEL-28 > 100 µM | UACC-62 > 100 µM | SF-295 > 100 µM | NCI-H522 > 100 µM

O=c1[nH]cnc2c1nnn2C1C=C(CO)C(O)C1O (stereo not given)
> 100 µM: HCT-15
inactive: SNB-19 > 100 µM | EKVX > 100 µM | NCI-H226 > 100 µM | XF498 > 100 µM | SR > 100 µM | SK-MEL-2 > 100 µM | HOP-18 > 100 µM | OVCAR-5 > 100 µM | KM12 > 100 µM | NCI-H460 > 100 µM | SF-268 74.1 µM | RPMI-8226 > 100 µM | DMS-273 23.5 µM | OVCAR-4 > 100 µM | HT-29 > 100 µM | U-251 > 100 µM | RXF 393 > 100 µM | SW-620 > 10 µM | A549 > 100 µM | SK-MEL-5 > 100 µM | NCI-H23 > 100 µM | HCC 2998 > 100 µM | A498 > 100 µM | UACC-257 > 100 µM | CAKI-1 > 100 µM | K562 > 100 µM | SNB-75 > 100 µM | TK-10 > 100 µM | UO-31 > 100 µM | 786-0 > 100 µM | CCRF-CEM > 100 µM | OVCAR-3 > 100 µM | SN12C > 100 µM | M14 > 100 µM | MOLT-4 > 100 µM | HCT-116 53.7 µM | DMS-114 59.2 µM | ACHN > 100 µM | HOP-62 > 100 µM | SF-539 > 100 µM | LXFL 529 > 100 µM | LOX IMVI 30.8 µM | KM-20L2 > 100 µM | SK-OV-3 > 100 µM | M19-MEL > 100 µM | SNB-78 > 100 µM | COLO 205 > 100 µM | HOP-92 > 100 µM | DLD-1 > 100 µM | IGROV-1 > 100 µM | OVCAR-8 > 100 µM | SK-MEL-28 > 100 µM | UACC-62 > 100 µM | SF-295 > 100 µM

CN(C)CCC(CCN(C)C)=NO
> 100 µM: HCT-15
inactive: SNB-19 > 100 µM | EKVX > 100 µM | SK-MEL-2 > 100 µM | HOP-18 > 100 µM | HL-60 > 100 µM | KM12 > 100 µM | NCI-H460 > 100 µM | SF-268 > 100 µM | RPMI-8226 > 100 µM | DMS-273 > 100 µM | OVCAR-4 > 100 µM | HT-29 > 100 µM | U-251 > 100 µM | RXF 393 > 100 µM | SW-620 > 100 µM | A549 > 100 µM | SK-MEL-5 > 100 µM | NCI-H23 > 100 µM | HCC 2998 > 100 µM | A498 > 100 µM | UACC-257 > 100 µM | CAKI-1 > 100 µM | Malme-3M > 100 µM | K562 > 100 µM | SNB-75 > 100 µM | TK-10 > 100 µM | UO-31 > 100 µM | 786-0 > 100 µM | CCRF-CEM > 100 µM | OVCAR-3 > 100 µM | SN12C > 100 µM | M14 > 100 µM | MOLT-4 > 100 µM | HCT-116 > 100 µM | DMS-114 > 100 µM | ACHN > 100 µM | HOP-62 > 100 µM | SF-539 > 100 µM | LXFL 529 > 100 µM | KM-20L2 > 100 µM | SK-OV-3 > 100 µM | M19-MEL > 100 µM | SNB-78 > 100 µM | RXF 631 > 100 µM | COLO 205 > 100 µM | DLD-1 > 100 µM | IGROV-1 > 100 µM | OVCAR-8 > 100 µM | SK-MEL-28 > 100 µM | UACC-62 > 100 µM | SF-295 > 100 µM | NCI-H522 > 100 µM

C/C(=N/N)c1sc(-c2nc(C)c(/C(C)=N\N)s2)nc1C
inactive: SNB-19 > 100 µM | EKVX > 100 µM | NCI-H226 > 100 µM | XF498 38.2 µM | SR 16.4 µM | SK-MEL-2 > 100 µM | HOP-18 > 67.1 µM | HL-60 30.1 µM | OVCAR-5 > 100 µM | KM12 > 100 µM | NCI-H460 59.3 µM | SF-268 > 100 µM | RPMI-8226 35.7 µM | DMS-273 > 41.3 µM | OVCAR-4 > 100 µM | HT-29 > 80.9 µM | U-251 > 100 µM | RXF 393 > 100 µM | SW-620 > 100 µM | A549 > 100 µM | SK-MEL-5 > 100 µM | NCI-H23 > 100 µM | HCC 2998 > 100 µM | A498 > 100 µM | UACC-257 > 100 µM | CAKI-1 > 100 µM | Malme-3M > 100 µM | K562 47.3 µM | SNB-75 > 100 µM | TK-10 > 100 µM | UO-31 > 100 µM | 786-0 > 55.6 µM | CCRF-CEM 27.2 µM | OVCAR-3 > 100 µM | SN12C > 100 µM | M14 > 95.3 µM | MOLT-4 24.5 µM | HCT-116 > 100 µM | DMS-114 > 46.7 µM | ACHN > 100 µM | HOP-62 > 100 µM | SF-539 > 100 µM | LXFL 529 50.8 µM | LOX IMVI 39.5 µM | KM-20L2 > 100 µM | SK-OV-3 > 100 µM | M19-MEL > 100 µM | SNB-78 > 100 µM | COLO 205 > 46.1 µM | HOP-92 > 100 µM | DLD-1 > 67.9 µM | IGROV-1 > 100 µM | OVCAR-8 > 86.1 µM | SK-MEL-28 > 100 µM | UACC-62 > 92.7 µM | SF-295 > 100 µM | NCI-H522 > 53.6 µM
> 43 µM: HCT-15

COc1ccc2c(c1)CCN1C3=C(CCC3)C(=O)C[C@@H]21
inactive: SNB-19 > 100 µM | EKVX > 100 µM | NCI-H226 > 100 µM | XF498 15.9 µM | SR 31.1 µM | SK-MEL-2 > 100 µM | HOP-18 > 100 µM | HL-60 23.2 µM | OVCAR-5 89.9 µM | KM12 > 100 µM | NCI-H460 > 100 µM | SF-268 > 100 µM | RPMI-8226 > 100 µM | DMS-273 > 100 µM | OVCAR-4 > 100 µM | HT-29 > 100 µM | U-251 > 100 µM | RXF 393 > 100 µM | SW-620 > 100 µM | A549 > 100 µM | SK-MEL-5 > 100 µM | NCI-H23 > 100 µM | HCC 2998 > 100 µM | A498 62.2 µM | UACC-257 > 100 µM | CAKI-1 > 100 µM | Malme-3M > 100 µM | K562 > 100 µM | SNB-75 44.9 µM | TK-10 44.7 µM | UO-31 43.6 µM | 786-0 > 100 µM | CCRF-CEM > 100 µM | OVCAR-3 > 100 µM | SN12C > 100 µM | M14 > 100 µM | MOLT-4 > 100 µM | HCT-116 > 100 µM | DMS-114 81.7 µM | ACHN > 100 µM | HOP-62 > 100 µM | SF-539 > 100 µM | LXFL 529 > 100 µM | LOX IMVI > 100 µM | KM-20L2 > 100 µM | SK-OV-3 > 100 µM | M19-MEL > 100 µM | SNB-78 > 100 µM | COLO 205 > 100 µM | HOP-92 > 100 µM | IGROV-1 > 100 µM | OVCAR-8 > 100 µM | SK-MEL-28 > 100 µM | UACC-62 > 100 µM | SF-295 > 100 µM | NCI-H522 > 100 µM
> 100 µM: HCT-15
